The record followed here is ChEMBL document CHEMBL1201862, “PubChem BioAssay data set” (2004).

SMILES strings stand for the structures.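 Cells were grown in 96-well plates and exposed to each compound for 48 hours at five concentrations; endpoints were interpolated linearly between bracketing concentrations, or set to the highest concentration if not reached. GI50: concentration for 50% inhibition of growth.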 Active and inactive are the calls of the source. Rule as the data show it: active = GI50 up to about 1.1 µM and inactive = higher.

Some test systems named below: A498; HT-29; HCT-116; UO-31; M14; MDA-N; IGROV-1; TK-10; PC-3; SR; Hs-578T; Malme-3M; CCRF-CEM; UACC-62; NCI/ADR-RES; KM12; CAKI-1; HOP-62; HCT-15; SNB-19.
Assay in all cases: DTP human tumour cell line panel, 48 h

Broadly, the GI50 is the concentration that inhibits growth by half. Consider `O=c1c2cc(I)ccc2nc(SCc2n[nH]c(=S)o2)n1Cc1ccccc1`, for which the GI50 in the assay with A498 was 18.6 µM (inactive); in the assay with HT-29, 22.3 µM (inactive); in the assay on HCT-116, 16 µM (inactive); in the assay on UO-31 it was 0.741 µM (active); with M14 it was 20.5 µM (inactive); with MDA-N, 17.3 µM (inactive). Moreover, the GI50 was 16.6 µM (inactive) with IGROV-1; 21 µM (inactive) in the assay with TK-10; 15.7 µM (inactive) in the assay with PC-3; 20.5 µM (inactive) with SR; 20.6 µM (inactive) in the assay on Hs-578T; 17.9 µM (inactive) with Malme-3M. Further, the GI50 in the assay on CCRF-CEM was 18.4 µM (inactive); with UACC-62, 12.5 µM (inactive); with NCI/ADR-RES it was 19.1 µM (inactive); in the assay on KM12 it was 16.9 µM (inactive); with CAKI-1, 6.25 µM (inactive); with HOP-62, 19.1 µM (inactive). The GI50 in the assay on HCT-15 was 17.3 µM; in the assay with SNB-19, 22.3 µM (inactive).
